# How the values were obtained:
# winter oilseed rape = assay: Field trial: grain yield effects on winter oilseed rape, sequential application of isoxadifen; format: in vivo
# Description: (§1) The trials have been carried out under natural field conditions (plot trials, 10 square meter plots, 2-4 replications).
# (§2) The applications have been done with seed treatment, pre- or post-emergence treatments straight (alone, 1 application) or sequential treatments e.g. seed treatment followed by pre-emergence and/or post-emergence spray applications. The pre- or post-emergence applications were made with spray applications using 100-300 l/water per hectare. The growth stage of the crops species at the time of application are reported in the result tables. The dose rates of the herbicidal active ingredients applied alone respective in sequential application are also described in the result tables.
# (§3) The assessments have been done via visual ratings (0-100% scale) or counting. The trials have been harvested after crops reached the full maturity. After the harvest the total weight of kernels/seeds/beets per plot was measured. The results are reported as means over 2-4 replications. The time between applications and assessments or countings/harvest are described in the result tables as well.
# (§4) The active ingredients have been applied to the untreated, dry seeds together with a carrier. After a short period of time to let the seeds dry, they were ready to be sown in the pot or field using standard equipments.
# sugarbeets [1] = assay: Field trial: emergence of sugarbeets, seed treatment with isoxadifen; format: in vivo, sugarbeet; conditions: seed treatment 0.015 mg ai/seed
# Description: as §1, §2, §3, §4
# [2] = tested on: spring oilseed rape (canola); assay: Field trial: grain yield effects on spring oilseed rape (canola), postemergence treatment with IDF-Et + TBC; format: in vivo; conditions: 92 days after application
# Description: The trials have been carried out under natural field conditions (plot trials, 10 square meter plots, 2-4 replications). The applications have been done with seed treatment, pre- or post-emergence treatments straight (alone, 1 application) or sequential treatments e.g. seed treatment followed by pre-emergence and/or post-emergence spray applications. The pre- or post-emergence applications were made with spray applications using 100-300 l/water per hectare. The growth stage of the crops species at the time of application are reported in the result tables. The dose rates of the herbicidal active ingredients applied alone respective in sequential application are also described in the result tables. The assessments have been done via visual ratings (0-100% scale) or counting. The trials have been harvested after crops reached the full maturity. After the harvest the total weight of kernels/seeds/beets per plot was measured. The results are reported as means over 2-4 replications. The time between applications and assessments or countings/harvest are described in the result tables as well.
# spring wheat [3] = assay: Field trial: grain yield effects on spring wheat, postemergence treatment with isoxadifen-ethyl; format: in vivo; conditions: 74 days after application
# Description: as §1, §2, §3
# sugarbeet = assay: Field trial: yield effects on sugarbeet, sequential application of isoxadifen-ethyl; format: in vivo
# Description: as §1, §2, §3, §4
# spring wheat [4] = assay: Field trial: grain yield effects on spring wheat, seed treatment with isoxadifen-ethyl; format: in vivo; conditions: 158 days after application
# Description: as §1, §2, §3, §4
# sugarbeets [5] = assay: Field trial: sugar yield of sugarbeets, sequential application; format: in vivo, sugarbeet
# Description: as §1, §2, §3, §4
# winter wheat = assay: Field trial: grain yield effects on winter wheat, postemergence treatment with isoxadifen-ethyl; format: in vivo; conditions: 84 days after application
# Description: as §1, §2, §3
# corn = assay: Field trial: grain yield effect on corn, sequential treatment with isoxadifen-ethyl; format: in vivo
# Description: as §1, §2, §3, §4
# [6] = grain yield relative to UTC (100%), 100 g ai/ha post-emergence
# [7] = grain yield, 100 g ai/ha post-emergence
smiles,measurement,setting,value
"O=C(O)C1=NOC(c2ccccc2)(c2ccccc2)C1 [IDF, 5,5-diphenyl-2-isoxazolinecarboxylic acid]",Yield,"winter oilseed rape; 3 g ai/kg seed fb 3 × 50 g ai/ha post (4-6 leaves, stem elongation, beginning of flowering), grain yield at harvest, 102 days after application",2.63 t/ha
same,Relative,"winter oilseed rape; grain yield relative to UTC (100%), 3 g ai/kg seed fb 3 × 50 g ai/ha post",105%
same,Difference(%) vs. UTC,"winter oilseed rape; grain yield, 3 g ai/kg seed fb 3 × 50 g ai/ha post",+5%
same,plants/18 row meters,"sugarbeets [1]; emergence of sugarbeets, counting 28 days after planting",74 plants/18 row meters
same,Relative,"sugarbeets [1]; emergence relative to UTC (100%), sugarbeets, 28 days after planting",113.8%
same,Difference(%) vs. UTC,"sugarbeets [1]; emergence, sugarbeets, 28 days after planting",+13.8%
"CC(C)(C)C(O)(CCc1ccc(Cl)cc1)Cn1cncn1 (stereo not drawn) [TBC, tebuconazole]",Relative %,"[2]; grain yield relative to UTC (100%), canola, TBC 150, IDF-Et 100 g ai/ha",101.8%
same,Difference(%) vs. UTC,"[2]; grain yield, canola, TBC 150, IDF-Et 100 g ai/ha",+1.8%
same,Yield,"[2]; spring oilseed rape (canola), TBC 150 g ai/ha, IDF-Et 100 g ai/ha, post-emergence spring, beginning of flowering, grain yield at harvest",3.98 t/ha
"CCOC(=O)C1=NOC(c2ccccc2)(c2ccccc2)C1 [IDF-Et, ethyl 5,5-diphenyl-2-isoxazolinecarboxylate]",Yield,"spring wheat [3]; 100 g ai/ha post-emergence spring, flag leaf/beginning of ear heading, grain yield at harvest",7.67 t/ha
same,Relative %,spring wheat [3]; [6],113.2%
same,Difference(%) vs. UTC,spring wheat [3]; [7],+13.2%
same,Yield,"sugarbeet; 0.015 mg ai/seed fb 3 × 50 g ai/ha post (2-4, 6-8, 10-12 leaves), yield of beets by weight at harvest, 162 days after application",65.3 t/ha
same,Relative,"sugarbeet; beet yield relative to UTC (100%), 0.015 mg ai/seed fb 3 × 50 g ai/ha post",111.2%
same,Difference(%) vs. UTC,"sugarbeet; beet yield, 0.015 mg ai/seed fb 3 × 50 g ai/ha post",+11.2%
same,Relative %,"spring wheat [4]; grain yield relative to UTC (100%), seed treatment 0.5 g ai/kg seed",108.7%
same,Difference(%) vs. UTC,"spring wheat [4]; grain yield, seed treatment 0.5 g ai/kg seed",+8.7%
same,Yield,"spring wheat [4]; seed treatment 0.5 g ai/kg seed (prior planting), grain yield at harvest",6.58 t/ha
same,Sugar Yield,"sugarbeets [5]; 0.015 mg ai/seed fb 3 × 50 g ai/ha post (2-4, 6-8, 10-12 leaves), sugar yield by weight at harvest, 162 days after application",6.19 t/ha
same,Relative,"sugarbeets [5]; sugar yield relative to UTC (100%), 0.015 mg ai/seed fb 3 × 50 g ai/ha post",108.6%
same,Difference(%) vs. UTC,"sugarbeets [5]; sugar yield, 0.015 mg ai/seed fb 3 × 50 g ai/ha post",+8.6%
same,Yield,"winter wheat; 100 g ai/ha post-emergence spring, beginning of stem elongation, grain yield at harvest",8.09 t/ha
same,Relative %,winter wheat; [6],109.0%
same,Difference(%) vs. UTC,winter wheat; [7],+9%
same,Yield,"corn; 0.5 g ai/kg seed fb 3 × 50 g ai/ha post (2-4, 6-8, 10-12 leaves), grain yield at harvest, 72 days after application",10.80 t/ha
same,Relative,"corn; grain yield relative to UTC (100%), 0.5 g ai/kg seed fb 3 × 50 g ai/ha post",124%
same,Difference(%) vs. UTC,"corn; grain yield, 0.5 g ai/kg seed fb 3 × 50 g ai/ha post",+24%

# — US20140378306A1, “USE OF 5-PHENYL- OR 5-BENZYL-2 ISOXAZOLINE-3 CARBOXYLATES FOR IMPROVING PLANT YIELD” (Bayer Intellectual Property GmbH, priority 2011, published 2014)
